In US20240033238A1, “COMBINATION OF COMPOUNDS FOR USE IN THERAPY” (B&A ONCOMEDICAL, priority 2022, published 2024):

Columns and labels:
[1] = test system: glioblastoma; settings: rodent glioblastoma models; shifted from 20 days; cited from earlier work
[2] = test system: K^+ influx in HEK293 cells; test: K+ influx in HEK293 cells (FIG. 1A); format: cell-based, human; settings: ouabain 100 uM
[3] = biological target: T1, NKCC1 (Homo sapiens, UniProt P55011); test: dose response on NKCC1-mediated K+ influx (FIG. 1B); format: cell-based; settings: HEK293 cells, dose response curves
T1 construct: endogenous in cells; host or cells: HEK293
T1 sequence (P55011 1-1212): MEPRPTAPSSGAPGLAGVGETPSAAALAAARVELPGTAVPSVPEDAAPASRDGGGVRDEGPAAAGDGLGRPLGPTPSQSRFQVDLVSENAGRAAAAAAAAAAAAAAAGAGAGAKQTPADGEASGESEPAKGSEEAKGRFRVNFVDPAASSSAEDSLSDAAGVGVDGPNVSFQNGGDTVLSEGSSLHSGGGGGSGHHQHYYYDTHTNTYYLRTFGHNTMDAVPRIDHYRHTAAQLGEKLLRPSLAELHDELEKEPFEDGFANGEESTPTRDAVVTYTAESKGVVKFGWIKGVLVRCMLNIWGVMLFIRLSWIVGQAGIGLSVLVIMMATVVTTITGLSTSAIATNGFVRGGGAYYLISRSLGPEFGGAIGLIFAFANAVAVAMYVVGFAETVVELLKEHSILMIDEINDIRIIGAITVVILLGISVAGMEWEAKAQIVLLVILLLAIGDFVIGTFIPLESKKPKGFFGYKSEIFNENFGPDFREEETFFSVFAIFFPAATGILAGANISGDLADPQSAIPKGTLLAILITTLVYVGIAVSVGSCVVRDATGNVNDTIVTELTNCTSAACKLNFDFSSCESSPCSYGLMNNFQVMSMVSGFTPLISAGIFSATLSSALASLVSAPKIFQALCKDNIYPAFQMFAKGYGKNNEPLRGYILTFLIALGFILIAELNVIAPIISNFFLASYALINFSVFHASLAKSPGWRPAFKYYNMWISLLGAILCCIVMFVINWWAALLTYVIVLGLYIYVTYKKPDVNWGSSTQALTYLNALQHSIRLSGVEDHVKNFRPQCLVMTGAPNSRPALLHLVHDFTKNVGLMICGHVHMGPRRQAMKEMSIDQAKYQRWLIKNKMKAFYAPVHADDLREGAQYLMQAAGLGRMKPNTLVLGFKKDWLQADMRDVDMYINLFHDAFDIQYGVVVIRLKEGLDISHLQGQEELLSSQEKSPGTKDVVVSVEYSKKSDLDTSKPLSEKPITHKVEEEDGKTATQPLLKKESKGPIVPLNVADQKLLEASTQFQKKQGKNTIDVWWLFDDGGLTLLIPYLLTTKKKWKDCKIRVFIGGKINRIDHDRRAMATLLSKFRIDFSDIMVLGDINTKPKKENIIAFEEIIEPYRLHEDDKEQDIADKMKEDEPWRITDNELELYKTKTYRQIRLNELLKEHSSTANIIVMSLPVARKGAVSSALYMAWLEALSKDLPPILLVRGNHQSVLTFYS

[4] = test system: U87 cell lines; test: cytotoxicity in GFP transfected U87 cells (cell number); format: cell-based, human; settings: for reduction of number of cells: U87, 0.1 μm; for reduction of cell number / cytotoxic effect (in words): U87, 10 μm; for cytotoxic effect (in words): bumetanide at day 3 and day 5
Method: The HEK cell line is a specific immortalised cell line widely used in cell biology and biotechnology research and the U87 cell line is a human glioblastoma cell line that is commonly used in brain cancer research.
The effects of bumetanide alone or in combination with mebendazole were investigated in U87 cell lines at 0.1, 1, and 10 μm. Each experiment was performed in triplicate (n=3). Cells were GFP transfected (green). Cytotoxicity is manifested by loss of GFP and presence of small round flat cells loosing GFP expression indicative of cell death (apoptosis).

[5] = test system: U87 cells; test: scratch test (invasion of tumour cells); format: cell-based, human; settings: U87, 0.1 μm; for reduction of invasion: day 5, compared to controls not treated; for anti-invasive action (persistence of a trench): day 8
Source text: To further investigate invasion of tumour cells, we performed a scratch test. This test enables to visualize the propagation and metastasis of tumour cells determined by their capacity to cross the trench. Therefore, U87 cells are cultivated and a scratch is made with a blade in order to estimate the strength and rapidity of invasion.

[6] = test system: U87 cells; test: immunochemistry (Dapi, iodure propidium, Actin/GFP) viability of cells; format: cell-based, human; settings: U87, 1 μm; control: 3%
Source text: The labels used are Dapi (blue) iodure propidium (red) and Actin immunocytochemistry with GFP (green) in order to visualize the viability and non-viability of cells.
To better illustrate the effects of bumetanide and mebendazole, we used Dapi (blue) iodure propidium (red) and Actin immunocytochemistry with GFP (green) in order to visualize the viability and non-viability of cells.

EC50 [3] [nM] | EC50 on NKCC1-mediated K+ influx [3] | Structure (SMILES) | mean survival [1] [days] | inhibition of K+ influx [2] | reduction of number of cells ([4]; day 3) | reduction of number of cells ([4]; day 5) | reduction of cell number ([4]; day 8) [%] | cytotoxic effect (in words) [4] | reduction of invasion [5] [%] | anti-invasive action (persistence of a trench) [5] | dead cells / reduction of cell density [6] | reduction of number of cells ([4]; day 8) [%] | reduction of cell number ([4]; day 1) [%] | reduction of cell number ([4]; day 5) [%] | inhibition at 100 µM ([2]; Homo sapiens) [%]
– | – | CCCSc1ccc2nc(NC(=O)OC)[nH]c2c1 [ABZ, albendazole] | 36 | – | – | – | – | – | – | – | – | – | – | – | –
312 | – | CCCCNc1cc(C(=O)O)cc(S(N)(=O)=O)c1Oc1ccccc1 [bumetanide] | – | 49% | not | not | 18 | strong cytotoxic action | 40 | neither applications of mebendazole or bumetanide separately produced an anti-invasive action | 3,2% | – | – | – | –
– | inefficacy | COC(=O)Nc1nc2ccc(C(=O)c3ccccc3)cc2[nH]1 [mebendazole, methyl N-[6-(benzoyl)-1H-benzimidazol-2-yl] carbamate] | 49 | ineffective | 43% | 90% | 64 | very strong cytotoxic effect | 15 | neither applications of mebendazole or bumetanide separately produced an anti-invasive action | 50% | 70 | 55 | 89 | –
– | – | C[C@@H]1O[C@@H](O[C@H]2C[C@@H](O)[C@]3(CO)[C@H]4[C@H](O)C[C@]5(C)[C@@H](C6=CC(=O)OC6)CC[C@]5(O)[C@@H]4CC[C@]3(O)C2)[C@H](O)[C@H](O)[C@H]1O [ouabain] | – | – | – | – | – | – | – | – | – | – | – | – | 44
